Test results as given in the supplement of paper PMC10307832.

Compound: CC(C)N(CCCNC(=O)Nc1ccc(C(C)(C)C)cc1)C[C@H]1O[C@@H](n2ccc3c(N)ncnc32)[C@H](O)[C@@H]1O
Assay: relative viability (nuclei count vs DMSO), 5 days (fraction); higher = more cells survive
Procedure, shortened: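 Viability here means nuclei in treated wells divided by nuclei in vehicle wells, reported as the median across plates. Only plates with control CV below 25% and at least one doubling passed. Lung cancer cell lines in 1536-well plates were exposed to five √10-spaced library-drug doses for 5 days and counted from 4× Hoechst images in MetaXpress.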

Cell Line | relative viability (0.08 µM) | relative viability (0.253 µM) | relative viability (0.8 µM) | relative viability (2.53 µM) | relative viability (8 µM)
201T | 1 | 1.02 | 0.746 | 0.981 | 1.02
A549 | 0.93 | 0.877 | 1.02 | 0.94 | 0.933
A-427 | 0.962 | 0.93 | 1.03 | 0.958 | 0.984
ABC-1 | 0.859 | 0.797 | – | 1.05 | 1.01
BEN | 0.954 | 1.02 | 0.948 | 0.863 | 1.03
CAL-12T | 0.937 | 0.906 | 0.992 | 0.969 | 0.938
COR-L23 | 1.04 | 1.03 | 1.08 | 1.01 | 1.02
COR-L 105 | 0.887 | 0.943 | 0.921 | 0.943 | 0.923
Calu-6 | 1 | 1.03 | 0.996 | 1.04 | 0.966
ChaGo-K-1 | 0.97 | 0.889 | 0.918 | 0.96 | 1.06
EBC-1 | 0.926 | 0.96 | 0.874 | 0.941 | 0.808
EKVX | 1 | 0.934 | 0.932 | 1 | 0.862
EMC-BAC-2 | 0.943 | 0.928 | 1.03 | 0.905 | 0.889
EPLC-272H | 0.907 | 0.883 | 0.968 | 0.936 | 0.859
H3255 | 0.876 | 0.929 | 0.919 | 0.933 | 0.893
HARA | 0.882 | 0.954 | 0.62 | 0.774 | 0.784
HCC-15 | 0.938 | 0.986 | 0.786 | 0.979 | 0.914
HCC-44 | 0.989 | 1.04 | 0.789 | 0.976 | 0.93
HCC-78 | 1.05 | 0.787 | 0.942 | 0.875 | 1
HCC-366 | 0.965 | 0.988 | 0.927 | 0.984 | 0.892
HCC-827 | 1.03 | 1.06 | 0.584 | 1.01 | 0.961
HOP-62 | 1.04 | 1.06 | 0.856 | 0.939 | 0.879
IA-LM | 1.02 | 0.879 | 1.02 | 0.963 | 0.84
LC-2-ad | 0.978 | 1.03 | 0.731 | 0.944 | 0.882
LCLC-97TM1 | 1.05 | 1 | 1.07 | 0.903 | 0.989
LCLC-103H | 0.946 | 0.966 | 0.857 | 0.839 | 1.01
LK-2 | 0.886 | 0.792 | 1.04 | 0.966 | 0.974

Cell Line | relative viability (0.08 µM) | relative viability (0.253 µM) | relative viability (0.8 µM) | relative viability (2.53 µM) | relative viability (8 µM)
LOU-NH91 | 0.981 | 0.908 | – | 0.979 | 1
LU99A | 0.876 | 0.842 | 1.04 | 0.979 | 1.02
LXF-289 | 0.97 | 1.03 | 0.923 | 1.03 | 0.95
NCI-H23 | 0.912 | 0.707 | 1.07 | 0.931 | 0.9
NCI-H322M | 0.929 | 0.893 | 0.93 | 0.918 | 0.975
NCI-H358 | 0.856 | 0.873 | 1.04 | 0.924 | 0.889
NCI-H441 | 1.01 | 1.06 | – | 1.1 | 0.981
NCI-H460 | 0.982 | 0.953 | 0.935 | 0.996 | 1.02
NCI-H520 | 0.882 | 0.773 | 0.793 | 0.98 | 0.939
NCI-H522 | 0.868 | 0.898 | 0.885 | 0.99 | 0.997
NCI-H596 | 0.976 | 0.795 | 0.962 | 1.11 | 1.09
NCI-H647 | 0.912 | 0.831 | 0.812 | 0.955 | 0.864
NCI-H650 | 0.831 | 0.902 | 1.06 | 0.775 | 0.882
NCI-H661 | 1.04 | 0.962 | 1.04 | 1.02 | 1
NCI-H727 | 0.867 | 0.815 | 0.868 | 0.931 | 0.943
NCI-H838 | 0.92 | 0.748 | 0.931 | 0.958 | 0.904
NCI-H1299 | 0.979 | 1.01 | 0.955 | 0.999 | 0.963
NCI-H1355 | 0.913 | 0.915 | 0.75 | 1.03 | 0.879
NCI-H1395 | 0.838 | 0.782 | 0.646 | 0.933 | 0.799
NCI-H1437 | 0.926 | 0.941 | 0.92 | 0.965 | 0.957
NCI-H1563 | 0.918 | 0.849 | 0.944 | 1.03 | 0.957
NCI-H1623 | 0.947 | 0.968 | 0.934 | 0.911 | 1.01
NCI-H1648 | 0.756 | 0.935 | 0.68 | 0.784 | 0.823
NCI-H1650 | 0.865 | 0.909 | – | 0.952 | 0.934
NCI-H1651 | 0.963 | 0.918 | 0.92 | 1 | 0.957
NCI-H1666 | 1.06 | 1.03 | 0.975 | 1.05 | 0.914
NCI-H1703 | 0.913 | 1.04 | 0.803 | 1.03 | 0.782

Cell Line | relative viability (0.08 µM) | relative viability (0.253 µM) | relative viability (0.8 µM) | relative viability (2.53 µM) | relative viability (8 µM)
NCI-H1734 | 0.926 | 0.804 | 0.962 | 0.949 | 0.916
NCI-H1755 | 1.01 | 0.944 | 0.856 | 0.926 | 0.913
NCI-H1792 | 1.06 | – | 0.812 | 0.912 | 0.99
NCI-H1793 | 0.865 | – | 0.861 | 0.891 | 0.854
NCI-H1915 | 0.957 | 1.01 | 0.848 | 0.947 | 0.942
NCI-H1944 | 0.979 | 0.878 | 0.762 | 0.976 | 0.936
NCI-H1975 | 0.844 | 0.837 | 0.594 | 0.843 | 0.743
NCI-H1993 | 0.86 | – | 0.905 | 0.919 | 0.922
NCI-H2009 | 1.01 | 0.969 | 0.961 | 0.985 | 0.934
NCI-H2023 | 0.955 | 0.864 | 0.977 | 0.931 | 0.846
NCI-H2085 | 0.93 | 0.905 | 1.03 | 1.02 | 0.983
NCI-H2087 | 1.08 | 0.934 | 0.799 | 1.15 | 1.07
NCI-H2126 | 0.955 | 0.918 | 0.942 | 0.961 | 0.905
NCI-H2170 | 0.972 | 0.937 | 0.924 | 1.02 | 0.975
NCI-H2228 | 0.925 | 1 | 0.903 | 0.949 | 1.09
NCI-H2342 | 1.01 | 1.08 | 0.815 | 1.01 | 1.05
NCI-H2347 | 1.02 | 0.963 | 0.935 | 1.06 | 0.955
NCI-H2405 | 1.02 | 0.974 | 0.931 | 1.06 | 0.966
NCI-H3122 | 0.978 | 0.98 | 0.965 | 0.954 | 0.993
PC-3 [JPC-3] | 0.969 | 1.06 | 0.883 | 1.03 | 0.934
PC-14 | 0.975 | 0.981 | 0.951 | 0.967 | 0.904
RERF-LC-KJ | 0.951 | 1.05 | 0.966 | 0.968 | 0.912
SK-LU-1 | 1.01 | 1.06 | 0.989 | 1.1 | 0.941
SK-MES-1 | 0.996 | 0.942 | 0.99 | 1.02 | 0.939
SW 900 | 0.787 | 0.705 | – | 0.886 | 0.812
SW 1573 | 0.968 | 0.966 | 1.07 | 1.11 | 0.984
